This note sets out measurements from patent publication US5574039A, “Antiproliferative compounds having nitrogen-containing tricyclic ring systems and phenyl substituents” (Agouron Pharmaceuticals, Inc., priority 1994, dated 1996).

The subject of assay [1] is thymidine kinase deficient human adenocarcinoma line (GC3 /M TK^-). Put plainly: cells. It counts as cell-based. The following applies: GC3/MTK-, 120 h, read-out: IC50 GC3-M.
For assay [2], the system named is CCRF-CEM, a human lymphoblastic leukemia line of T-cell origin (ATCC CCL 119). The assay can be described thus: cells. It counts as cell-based. The following applies: 120 h, read-out: IC50 (CRFCEM).
The test system of assay [3] is L1210 murine leukemia (ATCC CCL 219). Put plainly: cells. Particulars: Mus musculus, L1210, 72 h, read-out: IC50 L1210. It counts as cell-based.
Assay [4] deals with human TS ("HTS") (Homo sapiens, UniProt P04818). The assay can be described thus: biochemical. On the procedure:
(§1) Thymidylate synthase inhibition constants Ki were determined by the following method. All assays were run at 25° C. and initiated by the addition of three different types of thymidylate synthase ("TS"): (1) Escherichia Coli TS ("ETS"); (2) Candida TS ("CTS"), a fungus; and (3) human TS ("HTS").
All reaction mixtures contained 50 mM Tris at pH 7.8 (the final pH of the reaction was; 7.6), 10 mM DTT (dithiothreitol), 1 mM EDTA (ethylenediaminetetraacetic acid), 25 mM MgCl2, 15 mM H2 CO (formaldehyde) and 25 microM dUMP. When human TS was assayed, 100 micrograms/ml of BSA (bovine serum albumin) was present in the reactions. […] A standard curve in the absence of inhibitor was run with each experiment. […] Charcoal was used to remove unreacted dUMP from the tritium release reaction mixtures, and the resultant water was counted to determine the extent of reaction.

For assay [5], the target named is Candida TS ("CTS") (Candida albicans, UniProt P12461). Put plainly: Thymidylate synthase inhibition constant Ki, Candida TS. It counts as biochemical. How it is done: as §1
(§2) All reaction mixtures contained 50 mM Tris at pH 7.8 (the final pH of the reaction was; 7.6), 10 mM DTT (dithiothreitol), 1 mM EDTA (ethylenediaminetetraacetic acid), 25 mM MgCl2, 15 mM H2 CO (formaldehyde) and 25 microM dUMP. When human TS was assayed, 100 micrograms/ml of BSA (bovine serum albumin) was present in the reactions. The range of THF (Tetrahydrofolate) was 5 to 150 microM (eight concentrations: 5, 6.6, 10, 13, 16, 25, 50 and 150 microM). A standard curve in the absence of inhibitor was run with each experiment. […] Charcoal was used to remove unreacted dUMP from the tritium release reaction mixtures, and the resultant water was counted to determine the extent of reaction.

Assay [6] concerns the target Escherichia Coli TS ("ETS") (Escherichia coli, UniProt P0A884). Put plainly: Thymidylate synthase inhibition constant Ki, Escherichia Coli TS. It counts as biochemical. How it is done:
as §1, §2

Read-outs that look alike come from different tables or passages of the source. Some results are limits rather than exact numbers.

Sequence of human TS ("HTS") (P04818 whole entry): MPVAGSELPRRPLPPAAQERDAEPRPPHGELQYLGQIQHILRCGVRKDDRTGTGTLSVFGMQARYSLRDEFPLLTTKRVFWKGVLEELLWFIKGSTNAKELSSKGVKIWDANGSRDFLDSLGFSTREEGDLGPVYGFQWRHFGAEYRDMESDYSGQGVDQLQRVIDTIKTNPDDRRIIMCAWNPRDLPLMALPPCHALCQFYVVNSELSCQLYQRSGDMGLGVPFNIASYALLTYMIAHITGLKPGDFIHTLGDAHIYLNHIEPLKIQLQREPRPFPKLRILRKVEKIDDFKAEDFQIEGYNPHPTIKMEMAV
Sequence of Candida TS ("CTS") (P12461 whole entry): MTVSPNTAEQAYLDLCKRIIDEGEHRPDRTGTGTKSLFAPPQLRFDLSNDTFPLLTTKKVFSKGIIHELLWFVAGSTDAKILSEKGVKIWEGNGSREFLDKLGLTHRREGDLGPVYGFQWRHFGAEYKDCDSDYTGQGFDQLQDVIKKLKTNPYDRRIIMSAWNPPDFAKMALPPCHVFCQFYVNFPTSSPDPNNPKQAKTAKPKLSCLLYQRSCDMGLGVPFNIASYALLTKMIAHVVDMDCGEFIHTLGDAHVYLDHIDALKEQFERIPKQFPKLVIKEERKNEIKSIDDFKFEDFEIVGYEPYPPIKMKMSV
Sequence of Escherichia Coli TS ("ETS") (P0A884 whole entry): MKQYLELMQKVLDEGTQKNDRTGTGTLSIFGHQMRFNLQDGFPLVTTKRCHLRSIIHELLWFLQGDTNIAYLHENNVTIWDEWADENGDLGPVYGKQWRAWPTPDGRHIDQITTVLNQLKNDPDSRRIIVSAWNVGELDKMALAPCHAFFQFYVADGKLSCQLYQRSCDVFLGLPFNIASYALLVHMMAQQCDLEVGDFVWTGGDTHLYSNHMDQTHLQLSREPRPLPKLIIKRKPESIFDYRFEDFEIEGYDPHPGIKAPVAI

The term IC50 denotes the midpoint of a concentration-inhibition curve. `CN(Cc1ccc(S(=O)(=O)c2ccccc2)cc1)c1ccc2c3c(cccc13)C(=O)N2` [Compound 29]: the IC50 in assay [1] is over 5 µM.

Usually Ki stands for a measure of affinity in units of concentration, obtained from inhibition or displacement. As for `O=C1Nc2ccc(N(CCCO)Cc3ccc(S(=O)(=O)N4CCNCC4)cc3)c3cccc1c23` [Compound 40, N-[4-(N,N-Piperazinylsulfamoyl)benzyl]-N-hydroxypropyl-6-aminobenz[cd]indol-2-(1H)-one], the IC50 came to 15 µM in assay [2], 30 µM in assay [1] and 21.5 µM in assay [3]. Also, the Ki in assay [4] is 11 ± 5 µM; in assay [5] it was over 10 µM; in assay [6], over 10 µM.

For `CCCN(Cc1ccc(S(=O)(=O)N2CCNCC2)cc1)c1ccc2c3c(cccc13)C(=O)N2` [Compound 19, N-[4-(N,N-Piperazinylsulfamoyl)benzyl]-N-propyl-6-aminobenz[cd]indol-2(1H)-one], the values for the IC50 in assay [2], in assay [1] and in assay [3] were 3.1 µM, 5.4 µM and 2.9 µM, respectively. The Ki was 12 ± 4 µM in assay [4], over 10 µM in assay [5] and over 20 µM in assay [6].

`CCN(Cc1ccc(S(=O)(=O)c2ccccc2)cc1)c1ccc2c3c(cccc13)C(=O)N2` [Compound 8, N-[4-(phenylsulfonyl)benzyl]-N-ethyl-6-aminobenz[cd]indol-2(1H)-one]: the IC50 was over 3.33 µM in assay [2], over 3.33 µM in assay [1] and 3.05 µM in assay [3]. Moreover, the values for the Ki in assay [4], in assay [5] and in assay [6] were 1.2 ± 0.4 µM, over 1 µM and over 1 µM, respectively.

Take `CC(C)N(Cc1ccc(S(=O)(=O)N2CCNCC2)cc1)c1ccc2c3c(cccc13)C(=O)N2` [Compound 22, N-[4-(N,N-piperazinylsulfamoyl)benzyl]-N-isopropyl-6-aminobenz[cd]indol-2(1H)-one]: the IC50 came to 6.8 µM in assay [2], 5.9 µM in assay [1] and 3.9 µM in assay [3]. Further, the Ki was 4.9 ± 0.7 µM in assay [4], 43 ± 9 µM in assay [5] and 23 ± 7 µM in assay [6].

With `CCN(Cc1ccc(S(=O)(=O)c2ccccc2)cc1)c1ccc2c3c(cccc13)CN2` [Compound 41, N-[4-(phenylsulfonyl)benzyl]-N-ethyl-6-amino-dihydrobenz[cd]indole], the Ki in assay [4] is 12 ± 3 µM; in assay [5], over 10 µM; in assay [6] it was over 5 µM.

Turning to `CCN(Cc1ccc(S(=O)(=O)N2CCNCC2)cc1)c1ccc2c3c(cccc13)C(=S)N2` [Compound 6, N-^6 -Ethyl-N^6 [(4-N,N-piperazinyl)sulfamoyl]benzyl-6-aminobenz[cd]indol-2(1H)-thione], the results for the IC50 in assay [2], in assay [1] and in assay [3] were 3.5 µM, over 5 µM and 2.1 µM, respectively. The Ki in assay [4] amounted to 3.4 ± 0.4 µM; in assay [5], 23 ± 15 µM; in assay [6] it was 50 ± 9 µM.

In the case of `CSCN(Cc1ccc(S(=O)(=O)c2ccccc2)cc1)c1ccc2c3c(cccc13)C(=O)N2` [Compound 24, N-[4-(Phenylsulfonyl)benzyl]-N-methylthiomethyl-6-aminobenz[cd]indol-2(1H)-one], the IC50 was 2.8 µM in assay [2], over 10 µM in assay [1] and 2.1 µM in assay [3]. Besides, the Ki is 3.9 ± 1.7 µM in assay [4], over 1 µM in assay [5] and over 1 µM in assay [6].

On to `CN(Cc1ccc2cc(CO)ccc2c1)c1ccc2c3c(cccc13)C(=O)N2` [Compound 47, N-(6-Hydroxymethyl-2-naphthobenzyl)-N-methyl-6-aminobenz[cd]indol-2(1H)-one], for which the IC50 is over 4 µM in assay [2], over 4 µM in assay [1] and 1.7 µM in assay [3]. Moreover, the Ki in assay [4] was 20 ± 10 µM; in assay [5], over 10 µM; in assay [6], over 10 µM.

`CCN(Cc1ccc(S(=O)(=O)c2ccccc2)cc1)c1ccc2c3c(cccc13)C(N)=N2` [Compound 34]: the figures for the IC50 in assay [2], in assay [1] and in assay [3] were 1.25 µM, 3 µM and 0.7 µM, respectively. Moreover, the results for the Ki in assay [4], in assay [5] and in assay [6] were 0.075 ± 0.037 µM, 0.38 ± 0.11 µM and 10 ± 6 µM, respectively.

On to `O=C1Nc2ccc(N(CCO)Cc3ccc(S(=O)(=O)N4CCNCC4)cc3)c3cccc1c23` [Compound 16, N-[4-(N,N-Piperazinylsulfamoyl)benzyl]-N-hydroxyethyl-6-aminobenz[cd]indol-2(1H)-one], for which the IC50 is 31 µM in assay [2], over 50 µM in assay [1] and 50 µM in assay [3]. Also, the figures for the Ki in assay [4], in assay [5] and in assay [6] were 0.87 ± 0.19 µM, 11 ± 7 µM and 14 ± 7 µM, respectively.

On to `CN(Cc1ccc(CO)c2ccccc12)c1ccc2c3c(cccc13)C(=O)N2` [Compound 31, N-[4-Hydroxymethyl-1-naphthobenzyl]-N-methyl-6-aminobenz[cd]indol-2(1H)-one], for which the IC50 in assay [2] was 3 µM; in assay [1] it was 4 µM; in assay [3], 0.8 µM. The Ki was 10 ± 1 µM in assay [4]; over 2 µM in assay [5] (read-out: Ki CTS, 25° C., against 5,10-methylene-tetrahydrofolate, 25 microM dUMP); over 2 µM in assay [6] (read-out: Ki ETS, 25° C., against 5,10-methylene-tetrahydrofolate, 25 microM dUMP).
